# Source: patent US20260041744A1, “Methods for Treating Pompe Disease” (Amicus Therapeutics, Inc., priority 2022, published 2026)
# Legend:
# [1] = system: adults with Pompe disease; test: Study ATB200-02: plasma/serum creatine kinase (CK); conditions: for Serum creatine kinase, % CFBL mean: Non-ambulatory ERT-experienced
# Protocol: The change from baseline (CFBL) in 6MWD, % predicted sitting FVC, manual muscle test (MMT) and biomarkers—urine glucose tetrasaccharide (Hex4) and serum creatine kinase (CK)—were assessed at regular intervals.
# [2] = system: adults with Pompe disease; test: Study ATB200-02: SGIC and PGIC; format: in vivo, human; conditions: 48 months follow-up
# [3] = system: adults with Pompe disease; test: Study ATB200-02: GSGC, 10MWT, TUG; format: in vivo, human
# Description: The study design includes 4 stages and 4 cohorts, with Stages 1 and 2 only for Cohort 1 and Stages 3 and 4 for all 4 cohorts (FIG. 79).
# The 4 cohorts in the study are as follows: • Cohort 1: ERT-experienced (2 to 6 years) ambulatory subjects (11 subjects) • Cohort 2: ERT-experienced (≥2 years) non-ambulatory subjects (6 subjects) • Cohort 3: ERT-naïve ambulatory subjects (6 subjects)· • Cohort 4: ERT-experienced (≥7 years) ambulatory subjects (6 subjects)
# [4] = in vivo
# Protocol: The ongoing open-label extension (OLE) of PROPEL (NCT04138277; ATB200-07) evaluates long-term safety and efficacy of cipa/mig. Outcomes include 6 minute walk distance (6MWD), forced vital capacity (FVC), creatine kinase (CK) and hexose tetrasaccharide (Hex4) levels and safety. Data are reported as change from the PROPEL baseline to OLE week 52 (104 weeks after the PROPEL baseline).
# [5] = Cohort 1, ambulatory ERT-experienced, N = 7
# [6] = Cohort 2, non-ambulatory ERT-experienced, N = 5
# [7] = Cohort 3, ambulatory ERT-naïve, N = 6
# [8] = Cohort 4, ambulatory ERT-experienced, N = 6
# [9] = Ambulatory ERT-experienced, 12 months
# [10] = Ambulatory ERT-experienced, 24 months
# [11] = Ambulatory ERT-experienced, 36 months
# [12] = Ambulatory ERT-experienced, 48 months
# [13] = Ambulatory ERT-naïve, 12 months
# [14] = Ambulatory ERT-naïve, 24 months
# [15] = Ambulatory ERT-naïve, 36 months
# [16] = Ambulatory ERT-naïve, 48 months
substance,measurement,setting,value
"ATB200/miglustat: two-component therapy: cipaglucosidase alfa (ATB200) administered in conjunction with miglustat (AT2221), a stabilizer of cipaglucosidase alfa",patients whose plasma CK decreased numerically from baseline (n/N),"[1]; ERT-naïve, 48 months",4/5
same,"Serum creatine kinase, % CFBL mean",[1]; 12 months,−20.8%
same,"Serum creatine kinase, % CFBL mean",[1]; 24 months,−25.3%
same,"Serum creatine kinase, % CFBL mean",[1]; 36 months,−27.1%
same,"Serum creatine kinase, % CFBL mean",[1]; 48 months,−23.7%
same,"PGIC: Declined, %",[2]; [5],(0) %
same,"PGIC: Improved, %",[2]; [5],(57.1) %
same,"PGIC: No change, %",[2]; [5],(42.9) %
same,"SGIC; Overall physical wellbeing: Declined, %",[2]; [5],(0) %
same,"SGIC; Overall physical wellbeing: Improved, %",[2]; [5],(85.7) %
same,"SGIC; Overall physical wellbeing: No change, %",[2]; [5],(14.3) %
same,"PGIC: Declined, %",[2]; [6],(0) %
same,"PGIC: Improved, %",[2]; [6],(60.0) %
same,"PGIC: No change, %",[2]; [6],(40.0) %
same,"SGIC; Overall physical wellbeing: Declined, %",[2]; [6],(0) %
same,"SGIC; Overall physical wellbeing: Improved, %",[2]; [6],(60.0) %
same,"SGIC; Overall physical wellbeing: No change, %",[2]; [6],(40.0) %
same,"PGIC: Declined, %",[2]; [7],(0) %
same,"PGIC: Improved, %",[2]; [7],(100.0) %
same,"PGIC: No change, %",[2]; [7],(0) %
same,"SGIC; Overall physical wellbeing: Declined, %",[2]; [7],(0) %
same,"SGIC; Overall physical wellbeing: Improved, %",[2]; [7],(83.3) %
same,"SGIC; Overall physical wellbeing: No change, %",[2]; [7],(16.7) %
same,"PGIC: Declined, %",[2]; [8],(0) %
same,"PGIC: Improved, %",[2]; [8],(33.3) %
same,"PGIC: No change, %",[2]; [8],(66.7) %
same,"SGIC; Overall physical wellbeing: Declined, %",[2]; [8],(16.7) %
same,"SGIC; Overall physical wellbeing: Improved, %",[2]; [8],(66.7) %
same,"SGIC; Overall physical wellbeing: No change, %",[2]; [8],(16.7) %
same,"10-Meter Walk Test, CFBL mean",[3]; [9],−0.1 seconds
same,"Gait, Stairs, Gowers, and Chair, CFBL mean",[3]; [9],−1.3
same,"Timed Up and Go, CFBL mean",[3]; [9],-1.5 s
same,"10-Meter Walk Test, CFBL mean",[3]; [10],1.0 seconds
same,"Gait, Stairs, Gowers, and Chair, CFBL mean",[3]; [10],−1.6
same,"Timed Up and Go, CFBL mean",[3]; [10],0.1 s
same,"10-Meter Walk Test, CFBL mean",[3]; [11],3.9 seconds
same,"Gait, Stairs, Gowers, and Chair, CFBL mean",[3]; [11],−1.1
same,"Timed Up and Go, CFBL mean",[3]; [11],-1.5 s
same,"10-Meter Walk Test, CFBL mean",[3]; [12],0.6 seconds
same,"Gait, Stairs, Gowers, and Chair, CFBL mean",[3]; [12],−1.0
same,"Timed Up and Go, CFBL mean",[3]; [12],-0.6 s
same,"10-Meter Walk Test, CFBL mean",[3]; [13],−0.9 seconds
same,"Gait, Stairs, Gowers, and Chair, CFBL mean",[3]; [13],−0.8
same,"Timed Up and Go, CFBL mean",[3]; [13],-0.7 s
same,"10-Meter Walk Test, CFBL mean",[3]; [14],−0.5 seconds
same,"Gait, Stairs, Gowers, and Chair, CFBL mean",[3]; [14],−1.7
same,"Timed Up and Go, CFBL mean",[3]; [14],-1.0 s
same,"10-Meter Walk Test, CFBL mean",[3]; [15],0.1 seconds
same,"Gait, Stairs, Gowers, and Chair, CFBL mean",[3]; [15],−2.0
same,"Timed Up and Go, CFBL mean",[3]; [15],0.5 s
same,"10-Meter Walk Test, CFBL mean",[3]; [16],0.7 seconds
same,"Gait, Stairs, Gowers, and Chair, CFBL mean",[3]; [16],−2.4
same,"Timed Up and Go, CFBL mean",[3]; [16],0.3 s
same,"GSGC CFB, mean","[3]; Cohort 1 + Cohort 3 + Cohort 4, 24-mo",−1.7
same,"GSGC CFB, mean","[3]; Cohort 1 + Cohort 3 + Cohort 4, 48-mo",−1.5
same,"GSGC CFB, mean","[3]; Cohort 1 + Cohort 4 (ERT-experienced), 24-mo, negative = improvement",−1.6
same,"GSGC CFB, mean","[3]; Cohort 1 + Cohort 4 (ERT-experienced), 48-mo",−1.0
same,"GSGC CFB, mean","[3]; Cohort 3 (ERT-naïve), 24-mo",−1.7
same,"GSGC CFB, mean","[3]; Cohort 3 (ERT-naïve), 48-mo",−2.4
same,"other measures of motor function incl. 10MWT, GSGC, TUG",[3]; ERT-experienced and ERT-naïve ambulatory subjects,improvements in other measures of motor function
same,patients who discontinued the OLE due to infusion-associated reactions,[4],Three
same,safety and tolerability up to 104 weeks,[4],No new safety signals were identified
